From US20250388583A1, “COMPOUNDS AND METHOD FOR PKMYT1 INHIBITION” (Engine Biosciences Pte. Ltd., priority 2022, published 2025)

What was measured:
PKMYT1 = PKMYT1 (Homo sapiens (Human), UniProt Q99640); test: In vitro assay: kinase binding to immobilized ligand, captured kinase measured by qPCR
LCK = LCK (Homo sapiens (Human), UniProt P06239); test: as above
From the text: Example B-1: In Vitro Assay
Compounds that bind the kinase active site and directly (sterically) or indirectly (allosterically) prevent kinase binding to an immobilized ligand and reduce the amount of kinase captured on the solid support. Screening “hits” were identified by measuring the amount of kinase captured in test versus control samples by using a quantitative, precise and ultra-sensitive qPCR method that detect the associated DNA label. In a similar manner, dissociation constants (Kd's) for test compound-kinase interactions were calculated by measuring the amount of kinase captured on the solid support as a function of the test compound concentration.

LCK, sequence (P06239 whole entry): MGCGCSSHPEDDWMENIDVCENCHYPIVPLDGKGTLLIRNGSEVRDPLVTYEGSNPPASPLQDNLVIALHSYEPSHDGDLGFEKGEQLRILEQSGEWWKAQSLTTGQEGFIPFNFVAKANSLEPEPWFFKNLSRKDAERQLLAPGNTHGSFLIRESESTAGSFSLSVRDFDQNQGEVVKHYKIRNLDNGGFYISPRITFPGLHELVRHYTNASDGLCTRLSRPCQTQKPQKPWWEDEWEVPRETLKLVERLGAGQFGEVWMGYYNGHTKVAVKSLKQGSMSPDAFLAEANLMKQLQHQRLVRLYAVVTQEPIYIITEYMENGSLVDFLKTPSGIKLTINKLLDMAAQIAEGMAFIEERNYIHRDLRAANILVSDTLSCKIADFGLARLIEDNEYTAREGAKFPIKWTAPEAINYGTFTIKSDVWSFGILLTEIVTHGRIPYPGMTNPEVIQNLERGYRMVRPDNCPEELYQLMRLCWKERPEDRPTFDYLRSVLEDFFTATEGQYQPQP
PKMYT1, sequence (Q99640 whole entry): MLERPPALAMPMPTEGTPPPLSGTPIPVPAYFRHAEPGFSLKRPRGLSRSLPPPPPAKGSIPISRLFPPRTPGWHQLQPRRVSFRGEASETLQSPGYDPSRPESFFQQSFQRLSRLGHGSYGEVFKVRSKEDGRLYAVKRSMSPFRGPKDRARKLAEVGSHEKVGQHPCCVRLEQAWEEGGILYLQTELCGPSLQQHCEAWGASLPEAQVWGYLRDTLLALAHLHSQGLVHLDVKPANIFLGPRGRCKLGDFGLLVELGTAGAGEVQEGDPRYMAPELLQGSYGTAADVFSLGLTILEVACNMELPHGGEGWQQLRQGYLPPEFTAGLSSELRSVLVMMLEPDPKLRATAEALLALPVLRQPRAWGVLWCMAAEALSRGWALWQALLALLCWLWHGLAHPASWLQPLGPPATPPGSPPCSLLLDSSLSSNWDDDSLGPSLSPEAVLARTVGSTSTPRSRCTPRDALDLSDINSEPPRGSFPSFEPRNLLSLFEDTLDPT

IC50 (PKMYT1) [nM] | IC50 (LCK) [nM] | SMILES
< 50 | 100 to 1000 | Cc1ncc2c(C(N)=O)c(N)n(-c3c(C)cc(F)c(O)c3C)c2n1 [Compound 602, 6-amino-7-(4-fluoro-3-hydroxy-2,6-dimethyl-phenyl)-2-methyl-pyrrolo[2,3-d]pyrimidine-5-carboxamide]
< 50 | < 50 | Cc1cc(F)c(O)c(C)c1-n1c(N)c(C(N)=O)c2cc(Cl)cnc21 [Compound 603, 2-amino-5-chloro-1-(4-fluoro-3-hydroxy-2,6-dimethyl-phenyl)pyrrolo[2,3-b]pyridine-3-carboxamide]
< 50 | < 50 | CCc1ncc2c(C(N)=O)c(N)n(-c3c(C)ccc(O)c3C)c2c1F [Compound 604, 2-amino-6-ethyl-7-fluoro-1-(3-hydroxy-2,6-dimethyl-phenyl)pyrrolo[3,2-c]pyridine-3-carboxamide]
< 50 | < 50 | Cc1ccc(O)c(C)c1-n1c(N)c(C(N)=O)c2cnc(C3CC3)c(F)c21 [Compound 605, 2-amino-6-cyclopropyl-7-fluoro-1-(3-hydroxy-2,6-dimethylphenyl)-1H-pyrrolo[3,2-c]pyridine-3-carboxamide]
< 50 | < 50 | Cc1ccc(O)c(C)c1-n1c(N)c(C(N)=O)c2cnc(CCc3cscn3)c(F)c21 [Compound 638]
< 50 | < 50 | Cc1ccc(O)c(C)c1-n1c(N)c(C(N)=O)c2cnc(CCc3cncs3)c(F)c21 [Compound 642]
50 to 100 | < 50 | Cc1ccc(O)c(C)c1-n1c(N)c(C(N)=O)c2cnc(C#CC(F)(F)F)nc21 [Compound 648]
< 50 | < 50 | Cc1ccc(O)c(C)c1-n1c(N)c(C(N)=O)c2cnc(CCc3nccs3)c(F)c21 [Compound 649]
< 50 | < 50 | Cc1ccc(O)c(C)c1-n1c(N)c(C(N)=O)c2cnc(/C=C/C3CC3)nc21 [Compound 651]
< 50 | < 50 | CCc1c(O)cc(F)c(C)c1-n1c(N)c(C(N)=O)c2cnc(C)nc21 [Compound 659]
< 50 | < 50 | Cc1ccc(O)c(C)c1-n1c(N)c(C(N)=O)c2cnc(C3CC3)c(C#N)c21 [Compound 662]
< 50 | < 50 | Cc1c(O)cc(F)c(C)c1-n1c(N)c(C(N)=O)c2cnc(C3CC3)c(C#N)c21 [Compound 663, 2-amino-7-cyano-6-cyclopropyl-1-(3-fluoro-5-hydroxy-2,6-dimethyl-phenyl)pyrrolo[3,2-c]pyridine-3-carboxamide]
< 50 | < 50 | CCc1c(O)cc(F)c(C)c1-n1c(N)c(C(N)=O)c2cnc(C3CC3)c(C#N)c21 [Compound 673, 2-amino-7-cyano-6-cyclopropyl-1-(2-ethyl-5-fluoro-3-hydroxy-6-methyl-phenyl)pyrrolo[3,2-c]pyridine-3-carboxamide]
> 1000 | 100 to 1000 | Cc1cc2c(C(N)=O)c(N)n(-c3c(C)cc4c(c3C)OCC4)c2nc1C [Compound 675]
> 1000 | > 1000 | Cc1ncc2c(C(N)=O)c(N)n(-c3c(C)cc4[nH]c(=O)oc4c3C)c2n1 [Compound 680]
